Key:
[1] = test system: HCT-116 colon carcinoma cells; assay: Cell viability, LDH release assay, HCT-116; conditions: Homo sapiens, HCT-116, 48 h
[2] = test system: LoVo colon carcinoma cells; assay: Cell viability, LDH release assay, LoVo; conditions: Homo sapiens, LoVo, 48 h
[3] = test system: Bax, Bcl-2 and Casp-3 genes expression in LoVo cells; assay: qRT-PCR of Bax, Bcl-2 and Casp-3 gene expression, LoVo; type: cell-based, human; conditions: 30 µg/mL, 48 h
Method: To investigate molecular events downstream of ROS generation, we evaluated mRNA expression levels of key regulators of mitochondrial apoptosis—Bax and Bcl-2—using qRT-PCR. […] As a result, the Bax/Bcl-2 ratios were calculated to be 12.63 in LoVo cells and 8.71 in HCT-116 cells, reflecting a pronounced pro-apoptotic shift. This alteration in the Bax/Bcl-2 ratio strongly supports the activation of the mitochondrial apoptotic pathway.
To confirm activation of the execution phase of apoptosis, Casp-3 mRNA levels were evaluated by qRT-PCR.
The expression levels of these genes were determined using a quantitative real-time PCR technique. […]
S3.2.9. Quantification of the Expression Levels of Bax, Bcl-2 and Caspase-3 Genes
Human colon cancer cell lines (HCT-116 and LoVo) were cultured for 24 h in a 25 mL flask at
a density of 1 * 10^6 cells/flask as described in section S3.2.4. Cells were treated with 30 µg/mL
of compound 3d in 2 mL of fresh medium containing 1% FBS, or with 0.25 % DMSO as a
negative control, for 48 h. Afterwards, cells were washed with ice-cold phosphate-buffered
saline (PBS) and adherent cells were detached using trypsin solution.
Table S7 lists primers amplifying 100-200 bp of Bax, Bcl-2 and Caspase-3 genes. These primers
were designed using primer blast software (https://www.ncbi.nlm.nih.gov/tools/primer-
Table S7. Primer sequences for Bax, Bcl-2, Caspase-3, and GAPDH (control)
Gene Primer sequence (5’ to 3’)
Bcl-2 F 5’-[…] -3’,
Caspase 3 F 5’- […]-3’,
GAPDH F 5’- […]-3’
• Reverse-Transcription PCR (RT-PCR)
The total RNA was extracted from untreated and treated cells using the RNeasy Mini Kit
(Qiagen, DE). A Nanodrop 8000 spectrophotometer (Thermo Fisher Scientific, USA) was
used to check the RNA purity and quality. The Hyperscript Kit (GeneAll, KR) and random
hexamers (GeneAll, KR) were used as described in the manufacturer’s protocol to reverse-
transcript 1µg of RNA from each sample into cDNA.
• Quantitative real-time PCR
The mRNA expression of Bax, Bcl-2, and Caspase-3 were measured using QuantStudio
7Flex Detection System (Applied Biosystems, USA). The iScript One-Step RT-PCR Kit with
SYBR Green (Cat no: 170-8892; Bio-Rad, CA, USA) was used to carry out the reactions for
the synthesis of cDNA. Each cDNA sample (5 µl) was added in a 20 µL PCR mixture

[4] = relative to untreated controls, normalized to GAPDH

IC50 ([1]; read-out: Mean IC50 Values in µM ± SD, HCT-116 cells): 161 µM
IC50 ([2]; read-out: Mean IC50 Values in µM ± SD, LoVo cells): 157 µM
SMILES: COc1cc(/C=N/c2ncnc3sc4c(c23)CCCC4)cc(OC)c1OC [Compound 3d, (E)-N-(5,6,7,8-Tetrahydrobenzo[4,5]thieno[2,3-d]pyrimidin-4-yl)-1-(3,4,5-trimethoxyphenyl)methanimine]
viability at 100 µg/mL ([1]; read-out: Mean % of viable cells ± SD, HCT-116, 100 µg/mL, 48 h, LDH release assay): < 29%
viability at 100 µg/mL ([2]; read-out: Mean % of viable cells ± SD, LoVo, 100 µg/mL, 48 h, LDH release assay): < 29%
Bax/Bcl-2 ratio, LoVo cells [3]: 12.63
Bax mRNA expression, fold of control (LoVo) [3, 4]: 3.03 ± 0.41 fold
Bcl-2 mRNA expression, fold of control (LoVo) [3, 4]: 0.24 ± 0.03 fold
Casp-3 mRNA expression, fold of control (LoVo) [3, 4]: 5.35 ± 0.33 fold
